Legend:
[1] = tested on: recombinant NL4-3 virus (nef section replaced with Renilla luciferase gene) in MT-2 cells; assay: HIV cell culture assay (antiviral activity, luciferase readout); format: cell-based; details: Renilla, NL43, MT-2 cells infected for 4-5 days with recombinant NL4-3 Renilla luciferase virus, serial dilutions of compound
In short: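 Test compound in serial dilution was present while MT-2 cells were infected for 4–5 days with recombinant NL4-3 virus made in 293T cells. Antiviral activity was quantified as Renilla luciferase activity, read with a live-cell substrate. EC50 came from the median-effect equation.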

[2] = Compound cytotoxicity, XTT-based colorimetric assay; format: cell-based; details: human, uninfected MT2 cells, day 4, XTT
In short: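 Run under the antiviral-assay protocol but without virus. Viability was read on day 4 and CC50 values were derived from the readout.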

| SMILES | EC50 [1] [nM] | CC50 at 4 day [2] [nM] |
| --- | --- | --- |
| O=C(Cn1ccc(C2CC2)n1)N[C@@H](Cc1cc(F)cc(F)c1)c1nc2cc(-c3ccccc3-c3ccccc3)ccc2c(=O)n1-c1ccc(S(=O)(=O)N2CCOCC2)cc1 [Example 146, (S)-N-(1-(7-([1,1′-biphenyl]-2-yl)-3-(4-(morpholinosulfonyl)phenyl)-4-oxo-3,4-dihydroquinazolin-2-yl)-2-(3,5-difluorophenyl)ethyl)-2-(3-cyclopropyl-1H-pyrazol-1-yl)acetamide] | 69 | > 500 |
| O=C(Cn1ccc(C2CC2)n1)N[C@@H](Cc1cc(F)cc(F)c1)c1nc2cc(-c3cccc(-c4ccccc4)c3)ccc2c(=O)n1-c1ccc(S(=O)(=O)N2CCOCC2)cc1 [Example 147, (S)-N-(1-(7-([1,1′-biphenyl]-3-yl)-3-(4-(morpholinosulfonyl)phenyl)-4-oxo-3,4-dihydroquinazolin-2-yl)-2-(3,5-difluorophenyl)ethyl)-2-(3-cyclopropyl-1H-pyrazol-1-yl)acetamide] | 121 | > 1000 |
| O=C(Cn1ccc(C2CC2)n1)N[C@@H](Cc1cc(F)cc(F)c1)c1nc2cc(-c3ccc(-c4ccccc4)cc3)ccc2c(=O)n1-c1ccc(S(=O)(=O)N2CCOCC2)cc1 [Example 148, (S)-N-(1-(7-([1,1′-biphenyl]-4-yl)-3-(4-(morpholinosulfonyl)phenyl)-4-oxo-3,4-dihydroquinazolin-2-yl)-2-(3,5-difluorophenyl)ethyl)-2-(3-cyclopropyl-1H-pyrazol-1-yl)acetamide] | 71 | > 500 |
| O=C(Cn1nc(C(F)F)c2c1C(F)(F)[C@@H]1C[C@H]21)N[C@@H](Cc1cc(F)cc(F)c1)c1nc2cc(-c3cccc(F)c3F)ccc2c(=O)n1-c1ccc(S(=O)(=O)N2CCOCC2)cc1 [Example 149, 2-((3bS,4aR)-3-(difluoromethyl)-5,5-difluoro-3b,4,4a,5-tetrahydro-1H-cyclopropa[3,4]cyclopenta[1,2-c]pyrazol-1-yl)-N-((S)-2-(3,5-difluorophenyl)-1-(7-(2,3-difluorophenyl)-3-(4-(morpholinosulfonyl)phenyl)-4-oxo-3,4-dihydroquinazolin-2-yl)ethyl)acetamide] | 8.1 | > 1000 |
| Cc1cc(F)ccc1-c1ccc2c(=O)n(-c3ccc(S(=O)(=O)N4CCOCC4)cc3)c([C@H](Cc3cc(F)cc(F)c3)NC(=O)Cn3nc(C(F)F)c4c3C(F)(F)[C@@H]3C[C@H]43)nc2c1 [Example 150, 2-((3bS,4aR)-3-(difluoromethyl)-5,5-difluoro-3b,4,4a,5-tetrahydro-1H-cyclopropa[3,4]cyclopenta[1,2-c]pyrazol-1-yl)-N-((S)-2-(3,5-difluorophenyl)-1-(7-(4-fluoro-2-methylphenyl)-3-(4-(morpholinosulfonyl)phenyl)-4-oxo-3,4-dihydroquinazolin-2-yl)ethyl)acetamide] | 11 | > 500 |
| Cn1nc(NS(C)(=O)=O)c2c(Cl)ccc(-n3c([C@H](Cc4cc(F)cc(F)c4)NC(=O)Cn4nc(C(F)F)cc4C(F)F)nc4cc(-c5ccccc5F)ccc4c3=O)c21 [Example 154, (S)-2-(3,5-bis(difluoromethyl)-1H-pyrazol-1-yl)-N-(1-(3-(4-chloro-1-methyl-3-(methylsulfonamido)-1H-indazol-7-yl)-7-(2-fluorophenyl)-4-oxo-3,4-dihydroquinazolin-2-yl)-2-(3,5-difluorophenyl)ethyl)acetamide] | 4.8 | > 1000 |
| CC(C)n1ccc(CC(=O)N[C@@H](Cc2cc(F)cc(F)c2)c2nc3cc(-c4ccccc4F)ccc3c(=O)n2-c2ccc(Cl)c3c(NS(C)(=O)=O)nn(C)c23)n1 [Example 155, (S)-N-(1-(3-(4-chloro-1-methyl-3-(methylsulfonamido)-1H-indazol-7-yl)-7-(2-fluorophenyl)-4-oxo-3,4-dihydroquinazolin-2-yl)-2-(3,5-difluorophenyl)ethyl)-2-(1-isopropyl-1H-pyrazol-3-yl)acetamide] | 0.76 | > 1000 |
| COc1ccc(-c2ccc3c(=O)n(-c4ccc(Cl)c5c(NS(C)(=O)=O)nn(C)c45)c([C@H](Cc4cc(F)cc(F)c4)NC(=O)Cn4nc(C(F)F)c5c4C(F)(F)[C@@H]4C[C@H]54)nc3c2)cc1 [Example 156, N-((S)-1-(3-(4-chloro-1-methyl-3-(methylsulfonamido)-1H-indazol-7-yl)-7-(4-methoxyphenyl)-4-oxo-3,4-dihydroquinazolin-2-yl)-2-(3,5-difluorophenyl)ethyl)-2-((3bS,4aR)-3-(difluoromethyl)-5,5-difluoro-3b,4,4a,5-tetrahydro-1H-cyclopropa[3,4]cyclopenta[1,2-c]pyrazol-1-yl)acetamide] | 0.79 | > 500 |
| Cc1ncc(-c2ccc3c(=O)n(-c4ccc(Cl)c5c(NS(=O)(=O)C6CC6)nn(CC(F)F)c45)c([C@H](Cc4cc(F)cc(F)c4)NC(=O)Cn4nc(C(F)F)c5c4C(F)(F)[C@@H]4C[C@H]54)nc3c2)cn1 [Example 157, N-((S)-1-(3-(4-chloro-3-(cyclopropanesulfonamido)-1-(2,2-difluoroethyl)-1H-indazol-7-yl)-7-(2-methylpyrimidin-5-yl)-4-oxo-3,4-dihydroquinazolin-2-yl)-2-(3,5-difluorophenyl)ethyl)-2-((3bS,4aR)-3-(difluoromethyl)-5,5-difluoro-3b,4,4a,5-tetrahydro-1H-cyclopropa[3,4]cyclopenta[1,2-c]pyrazol-1-yl)acetamide] | 0.06 | > 500 |
| Cc1cccc(-c2ccc3c(=O)n(-c4ccc(Cl)c5c(NS(=O)(=O)C6CC6)nn(CC(F)F)c45)c([C@H](Cc4cc(F)cc(F)c4)NC(=O)Cn4nc(C(F)F)c5c4C(F)(F)[C@@H]4C[C@H]54)nc3c2)n1 [Example 158, N-((S)-1-(3-(4-chloro-3-(cyclopropanesulfonamido)-1-(2,2-difluoroethyl)-1H-indazol-7-yl)-7-(6-methylpyridin-2-yl)-4-oxo-3,4-dihydroquinazolin-2-yl)-2-(3,5-difluorophenyl)ethyl)-2-((3bS,4aR)-3-(difluoromethyl)-5,5-difluoro-3b,4,4a,5-tetrahydro-1H-cyclopropa[3,4]cyclopenta[1,2-c]pyrazol-1-yl)acetamide] | 0.14 | > 500 |
| Cc1ccnc(-c2ccc3c(=O)n(-c4ccc(Cl)c5c(NS(=O)(=O)C6CC6)nn(CC(F)F)c45)c([C@H](Cc4cc(F)cc(F)c4)NC(=O)Cn4nc(C(F)F)c5c4C(F)(F)[C@@H]4C[C@H]54)nc3c2)n1 [Example 159, N-((S)-1-(3-(4-chloro-3-(cyclopropanesulfonamido)-1-(2,2-difluoroethyl)-1H-indazol-7-yl)-7-(4-methylpyrimidin-2-yl)-4-oxo-3,4-dihydroquinazolin-2-yl)-2-(3,5-difluorophenyl)ethyl)-2-((3bS,4aR)-3-(difluoromethyl)-5,5-difluoro-3b,4,4a,5-tetrahydro-1H-cyclopropa[3,4]cyclopenta[1,2-c]pyrazol-1-yl)acetamide] | 0.1 | > 500 |
| CS(=O)(=O)c1ccccc1-c1ccc2c(=O)n(-c3ccc(Cl)c4c(NS(=O)(=O)C5CC5)nn(CC(F)F)c34)c([C@H](Cc3cc(F)cc(F)c3)NC(=O)Cn3nc(C(F)F)c4c3C(F)(F)[C@@H]3C[C@H]43)nc2c1 [Example 160, N-((S)-1-(3-(4-chloro-3-(cyclopropanesulfonamido)-1-(2,2-difluoroethyl)-1H-indazol-7-yl)-7-(2-(methylsulfonyl)phenyl)-4-oxo-3,4-dihydroquinazolin-2-yl)-2-(3,5-difluorophenyl)ethyl)-2-((3bS,4aR)-3-(difluoromethyl)-5,5-difluoro-3b,4,4a,5-tetrahydro-1H-cyclopropa[3,4]cyclopenta[1,2-c]pyrazol-1-yl)acetamide] | 0.082 | > 500 |
| Cc1cccc(-c2ccc3c(=O)n(-c4ccc(Cl)c5c(NS(C)(=O)=O)nn(CC(F)(F)F)c45)c([C@H](Cc4cc(F)cc(F)c4)NC(=O)Cn4nc(C(F)F)c5c4C(F)(F)[C@@H]4C[C@H]54)nc3c2)n1 [Example 161, N-((S)-1-(3-(4-chloro-3-(methylsulfonamido)-1-(2,2,2-trifluoroethyl)-1H-indazol-7-yl)-7-(6-methylpyridin-2-yl)-4-oxo-3,4-dihydroquinazolin-2-yl)-2-(3,5-difluorophenyl)ethyl)-2-((3bS,4aR)-3-(difluoromethyl)-5,5-difluoro-3b,4,4a,5-tetrahydro-1H-cyclopropa[3,4]cyclopenta[1,2-c]pyrazol-1-yl)acetamide] | 0.12 | > 500 |
| Cc1ccnc(-c2ccc3c(=O)n(-c4ccc(Cl)c5c(NS(C)(=O)=O)nn(CC(F)(F)F)c45)c([C@H](Cc4cc(F)cc(F)c4)NC(=O)Cn4nc(C(F)F)c5c4C(F)(F)[C@@H]4C[C@H]54)nc3c2)n1 [Example 162, N-((S)-1-(3-(4-chloro-3-(methylsulfonamido)-1-(2,2,2-trifluoroethyl)-1H-indazol-7-yl)-7-(4-methylpyrimidin-2-yl)-4-oxo-3,4-dihydroquinazolin-2-yl)-2-(3,5-difluorophenyl)ethyl)-2-((3bS,4aR)-3-(difluoromethyl)-5,5-difluoro-3b,4,4a,5-tetrahydro-1H-cyclopropa[3,4]cyclopenta[1,2-c]pyrazol-1-yl)acetamide] | 0.059 | > 500 |
| CS(=O)(=O)Nc1nn(CC(F)(F)F)c2c(-n3c([C@H](Cc4cc(F)cc(F)c4)NC(=O)Cn4nc(C(F)F)c5c4C(F)(F)[C@@H]4C[C@H]54)nc4cc(-c5ncccn5)ccc4c3=O)ccc(Cl)c12 [Example 163, N-((S)-1-(3-(4-chloro-3-(methylsulfonamido)-1-(2,2,2-trifluoroethyl)-1H-indazol-7-yl)-4-oxo-7-(pyrimidin-2-yl)-3,4-dihydroquinazolin-2-yl)-2-(3,5-difluorophenyl)ethyl)-2-((3bS,4aR)-3-(difluoromethyl)-5,5-difluoro-3b,4,4a,5-tetrahydro-1H-cyclopropa[3,4]cyclopenta[1,2-c]pyrazol-1-yl)acetamide] | 0.046 | > 500 |
